Source: patent US11420970B1 (NOVARTIS AG, priority 2019, dated 2022)
Read-outs that look alike come from different tables or passages of the source.

Tests used:
NSD2 [1-1365] = NSD2 [1-1365] (Homo sapiens (Human), UniProt O96028); test: LC-MS/MS-based NSD2 enzymatic assay (SAH production); type: biochemical; conditions: read-out: NSD2 IC50
Procedure: LC-MS/MS-Based NSD2 Enzymatic Assay
This assay employed LC-MS/MS technology to monitor the SAH production from the NSD2 enzymatic reaction. The enzymatic reaction was performed in white proxiplate plus 384-well microplate (Perkin Elmer). The reaction mixture (10 μL) were composed of 8 nM NSD2 [1-1365], […] SAM (USB, 10601) and 400 nM nucleosome (purified from mouse liver) in reaction buffer (20 mM Tris-HCl, pH at 8.0, 0.01% Tween 20, 10 mM MgCl2, 50 mM NaCl, 1 mM DTT, 1 mM TCEP (pH7.5)). After 90 min incubation at room temperature, 3 μL quenching solution containing 2.5% TFA with 320 nM d4-SAH was added to stop the reaction.
For the inhibition assay, compound solutions were transferred into the wells by Mosquito™ (TTP LabTech). The inhibition assays were carried out by preincubating various concentrations of the inhibitor with 5 uL reaction mixture containing 16 nM NSD2 [1-1365] and 2 uM SAM (USB, 10601) in reaction buffer. After 20 min preincubation, 5 uL solution containing 800 nM nucleosome (purified from mouse liver) in reaction buffer was added to initiate the reaction. The reaction was stopped by 3 μL quenching solution containing 2.5% TFA with 320 nM d4-SAH after 90 min.
The SAH production from the enzymatic assays were monitored by LC-MS/MS on an API 4000 triple quadrupole mass spec with Turbolon Spray (Applied Biosystem) coupled with Prominenece UFLC(Shimazu). Liquid chromatography was performed on a Chromolith FastGradient HPLC column (RP-18e, 25-2 mm, from Merck) at a flow rate of 0.8 ml/min. The column was connected directly to the turbo ion electrospray operating in the positive-ion mode. Mobile phase A is 0.1% FA and 2% methanol in water and mobile phase B is 0.1% FA in ACN. Injection volume was 3 μl and the autosampler was kept at 4 degree. SAH and d4-SAH were simultaneously monitored. Data were acquired and processed by Analyst software.
To quantify the formed SAH, d4-SAH was added as internal standard (IS). A series of SAH (Sigma, A9384) solution at varying concentration (1-500 nM in reaction buffer) was mixed with quenching solution mentioned above. Then LC-MS/MS was carried out on API 4000 LC/MS/MS system to detect both SAH and d4-SAH. The plot of SAH peak area/IS peak area vs SAH concentration was used to generate the normalization factor of SAH. The SAH production from real enzymatic reaction was derived from the standard curve of SAH. The down-limit of our system for the detection of SAH is around 1-2 nM, and the linear range can reach up to 500 nM.

[1] = system: cellular H3K36me2 level in multiple myeloma cell line KMS11 (t(4;14)+); test: H3K36me2 cellular ELISA assay in KMS11-Par line; type: cell-based; conditions: Homo sapiens, KMS-11; KMS11-Par line (t(4;14)+), 72 hours treatment, ELISA; read-out: H3K36me2 ELISA in KMS11-Par
Procedure: H3K36Me2 Cellular ELISA Assay in KMS11-Par Line
An ELISA (enzyme-linked immunosorbent assay) based assay was used to test the ability of candidate compound to reduce cellular H3K36me2 level in multiple myeloma cell line KMS11 (t(4;14)+). KMS11 (Horizon Discovery Ltd.) cells are maintained in RPM11640 media with 12.5% FBS and 50 U/ml Penicillin-Streptomycin. For assay compound treatment, single cell suspension was prepared in Opti-MEM supplemented with B-27 and N2 supplement (Invitrogen 11058-021, 17504-044, 17502-048) for ELISA and in maintenance media for cellTiter Glo (CTG) viability assay. One day prior to cell treatment, 1,250 KMS11 cells were seeded into 384-well Greiner CellStar TC plate (Greiner #781086) at the final volume of 30 μL/well.
Cells were treated with tested compounds at the desired concentration for 72 hours. Crude histone lysate was extracted by 0.4M HCl following neutralization by 0.5M Sodium phosphate, dibasic (Na2HPO4), pH ˜12.5. Equal amount of histone lysate was loaded to Corning 384-well high biding plate (Corning #3577, black) for H3K36m2 and to Thermo 384-well high binding Nunc plate (Thermo #460372, white) for total H3.
Histone bound plates were washed and blocked with 5% BSA. […] The abundance of H3K36me2 and total H3 was measured by Chemiluminesce on a plate reader. Cell viability was monitored on a parallel seeded plate with CellTiter-Glo reagent (Promega #G7573).

[2] = NSD2 biochemical activity, class symbols

Sequence of NSD2 [1-1365] (O96028 whole entry): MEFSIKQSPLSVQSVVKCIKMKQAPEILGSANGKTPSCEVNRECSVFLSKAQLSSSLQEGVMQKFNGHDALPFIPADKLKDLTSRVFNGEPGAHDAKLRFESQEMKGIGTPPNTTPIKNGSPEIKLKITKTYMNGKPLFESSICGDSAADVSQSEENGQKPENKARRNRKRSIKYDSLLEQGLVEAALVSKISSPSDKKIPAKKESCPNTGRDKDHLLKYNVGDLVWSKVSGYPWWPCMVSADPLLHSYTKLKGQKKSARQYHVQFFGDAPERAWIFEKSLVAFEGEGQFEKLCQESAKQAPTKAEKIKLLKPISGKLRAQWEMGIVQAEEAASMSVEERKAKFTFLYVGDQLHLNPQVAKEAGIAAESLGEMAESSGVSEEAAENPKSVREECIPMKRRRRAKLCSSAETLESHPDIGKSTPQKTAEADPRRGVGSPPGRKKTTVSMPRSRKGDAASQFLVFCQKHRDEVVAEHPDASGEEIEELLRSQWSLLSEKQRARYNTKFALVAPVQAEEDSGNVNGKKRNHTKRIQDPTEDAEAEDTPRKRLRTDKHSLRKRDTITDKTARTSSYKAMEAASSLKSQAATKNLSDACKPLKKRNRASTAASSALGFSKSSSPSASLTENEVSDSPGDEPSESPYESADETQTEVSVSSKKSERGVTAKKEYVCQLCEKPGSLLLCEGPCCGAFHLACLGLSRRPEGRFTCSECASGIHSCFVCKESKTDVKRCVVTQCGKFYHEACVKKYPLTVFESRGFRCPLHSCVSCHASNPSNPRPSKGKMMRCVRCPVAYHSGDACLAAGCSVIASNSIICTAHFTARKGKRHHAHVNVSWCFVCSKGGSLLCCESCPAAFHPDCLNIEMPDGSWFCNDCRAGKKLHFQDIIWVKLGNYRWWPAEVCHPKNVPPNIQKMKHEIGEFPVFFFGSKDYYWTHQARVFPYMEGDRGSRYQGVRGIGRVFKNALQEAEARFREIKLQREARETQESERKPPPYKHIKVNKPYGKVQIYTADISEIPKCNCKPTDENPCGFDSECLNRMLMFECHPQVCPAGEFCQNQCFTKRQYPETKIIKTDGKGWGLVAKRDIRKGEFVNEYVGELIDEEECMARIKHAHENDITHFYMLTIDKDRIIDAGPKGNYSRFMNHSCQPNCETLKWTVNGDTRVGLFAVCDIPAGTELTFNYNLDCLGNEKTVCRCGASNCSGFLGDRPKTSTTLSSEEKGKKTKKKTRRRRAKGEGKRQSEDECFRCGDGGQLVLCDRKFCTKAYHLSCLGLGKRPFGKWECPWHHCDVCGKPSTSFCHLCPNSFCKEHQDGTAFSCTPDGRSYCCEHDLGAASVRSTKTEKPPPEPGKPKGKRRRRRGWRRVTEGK

Row | SMILES | IC50 (NSD2 [1-1365]; [2]) | IC50 [1] | IC50 (NSD2 [1-1365])
1 | Nc1nccc2c1ncn2Cc1cc(-c2ccc(F)c(F)c2)ncc1N1CCC[C@](N)(Cc2nccs2)C1 [Example 48, (S)-1-((5-(3-amino-3-(thiazol-2-ylmethyl)piperidin-1-yl)-2-(3,4-difluorophenyl)pyridin-4-yl)methyl)-1H-imidazo[4,5-c]pyridin-4-amine] | 0.001 to 0.01 µM | 0.464 µM | –
2 | Cn1ccc(C[C@@]2(N)CCCN(c3cnc(-c4ccc(F)cc4)cc3Cn3cnc4c(N)nccc43)C2)n1 [Example 49, (S)-1-((5-(3-amino-3-((1-methyl-1H-pyrazol-3-yl)methyl)piperidin-1-yl)-2-(4-fluorophenyl)pyridin-4-yl)methyl)-1H-imidazo[4,5-c]pyridin-4-amine] | 0.001 to 0.01 µM | 12.7 µM | –
3 | COc1ccc(-c2cc(Cn3cnc4c(N)nccc43)c(N3CCC[C@](N)(Cc4ccccn4)C3)cn2)cc1F [Example 50, (S)-1-((5-(3-amino-3-(pyridin-2-ylmethyl)piperidin-1-yl)-2-(3-fluoro-4-methoxyphenyl)pyridin-4-yl)methyl)-1H-imidazo[4,5-c]pyridin-4-amine] | 0.001 to 0.01 µM | 0.895 µM | –
4 | Nc1nccc2c1ncn2Cc1cc(-c2ccc(F)c(F)c2)ncc1N1CCC[C@](N)(Cc2ccccn2)C1 [Example 51, (S)-1-((5-(3-amino-3-(pyridin-2-ylmethyl)piperidin-1-yl)-2-(3,4-difluorophenyl)pyridin-4-yl)methyl)-1H-imidazo[4,5-c]pyridin-4-amine] | 0.001 to 0.01 µM | 1.53 µM | –
5 | Cc1cccc(C[C@@]2(N)CCCN(c3cnc(-c4ccc(F)c(F)c4)cc3Cn3cnc4c(N)ncnc43)C2)n1 [Example 55, (S)-9-((5-(3-amino-3-((6-methylpyridin-2-yl)methyl)piperidin-1-yl)-2-(3,4-difluorophenyl)pyridin-4-yl)methyl)-9H-purin-6-amine] | 0.001 to 0.01 µM | 0.91 µM | –
6 | COc1ccc(-c2cc(Cn3cnc4c(N)nccc43)c(N3CCC[C@](N)(Cc4nccs4)C3)cn2)cc1F [Example 57, (S)-1-((5-(3-amino-3-(thiazol-2-ylmethyl)piperidin-1-yl)-2-(3-fluoro-4-methoxyphenyl)pyridin-4-yl)methyl)-1H-imidazo[4,5-c]pyridin-4-amine] | 0.001 to 0.01 µM | 0.61 µM | –
7 | Nc1nccc2c1ncn2Cc1cc(-c2ccc(F)c(F)c2)ncc1N1CCC[C@](N)(Cc2ncco2)C1 [Example 63, (S)-1-((5-(3-amino-3-(oxazol-2-ylmethyl)piperidin-1-yl)-2-(3,4-difluorophenyl)pyridin-4-yl)methyl)-1H-imidazo[4,5-c]pyridin-4-amine] | 0.01 to 1 µM | 7.91 µM | –
8 | Nc1ncnc2c1ncn2Cc1cc(-c2ccc(F)c(F)c2)ncc1N1CCCC2(COCCN2)C1 (stereo not shown) [Example 321, 9-((2-(3,4-difluorophenyl)-5-(4-oxa-1,8-diazaspiro[5.5]undecan-8-yl)pyridin-4-yl)methyl)-9H-purin-6-amine] | – | – | > 1 µM
9 | Nc1ncnc2c1ncn2Cc1cc(-c2ccc(F)c(F)c2)ncc1N1CCC[C@@H](N)[C@H]1c1ccccc1 [Example 323, 9-((5-((2R,3R)-3-amino-2-phenylpiperidin-1-yl)-2-(3,4-difluorophenyl)pyridin-4-yl)methyl)-9H-purin-6-amine] | – | – | > 1 µM
10 | Nc1ncnc2c1ncn2Cc1cc(-c2ccc(F)c(F)c2)ncc1N1C[C@H](N)CCC1=O [Example 325, (R)-5-amino-1-(4-((6-amino-9H-purin-9-yl)methyl)-6-(3,4-difluorophenyl)pyridin-3-yl)piperidin-2-one] | – | – | > 1 µM

Other lines, results leading:

Row | IC50 (NSD2 [1-1365]; [2]) | IC50 [1] | IC50 (NSD2 [1-1365]) | SMILES
11 | – | – | 0.01 to 1 µM | Nc1ncnc2c1ncn2Cc1cc(-c2ccc(F)c(F)c2)ncc1N1CCC[C@@H](N)[C@H]1COC(F)F [Example 311, 9-((5-((2S,3R)-3-amino-2-((difluoromethoxy)methyl)piperidin-1-yl)-2-(3,4-difluorophenyl)pyridin-4-yl)methyl)-9H-purin-6-amine]
12 | – | – | 0.01 to 1 µM | Nc1ncnc2c1ncn2Cc1cc(-c2ccc(F)c(F)c2)ncc1N1CCC[C@@H](N)[C@H]1CO [Example 312, ((2S,3R)-3-amino-1-(4-((6-amino-9H-purin-9-yl)methyl)-6-(3,4-difluorophenyl)pyridin-3-yl)piperidin-2-yl)methanol]
13 | – | – | 0.01 to 1 µM | Nc1ncnc2c1ncn2Cc1cc(-c2ccc(F)c(F)c2)ncc1N1CCC[C@@H](N)[C@H]1COCC(F)F [Example 313, 9-((5-((2S,3R)-3-amino-2-((2,2-difluoroethoxy)methyl)piperidin-1-yl)-2-(3,4-difluorophenyl)pyridin-4-yl)methyl)-9H-purin-6-amine]
14 | – | – | 0.01 to 1 µM | Nc1ncnc2c1ncn2Cc1cc(-c2ccc(F)c(F)c2)ncc1N1CCC[C@@H](N)[C@H]1CCO [Example 314, 2-((2R,3R)-3-amino-1-(4-((6-amino-9H-purin-9-yl)methyl)-6-(3,4-difluorophenyl)pyridin-3-yl)piperidin-2-yl)ethan-1-ol]
15 | – | – | > 1 µM | CNC(=O)[C@@H]1[C@H](N)CCCN1c1cnc(-c2ccc(F)c(F)c2)cc1Cn1cnc2c(N)ncnc21 [Example 315, (2S,3R)-3-amino-1-(4-((6-amino-9H-purin-9-yl)methyl)-6-(3,4-difluorophenyl)pyridin-3-yl)-N-methylpiperidine-2-carboxamide]
16 | – | – | > 1 µM | Nc1ncnc2c1ncn2Cc1cc(-c2ccc(F)c(F)c2)ncc1N1CCC[C@@H](N)[C@H]1[C@@H](O)C(F)(F)F [Example 316, (R)-1-((2S,3R)-3-amino-1-(4-((6-amino-9H-purin-9-yl)methyl)-6-(3,4-difluorophenyl)pyridin-3-yl)piperidin-2-yl)-2,2,2-trifluoroethan-1-ol]
17 | – | – | > 1 µM | CN(C)C(=O)[C@@H]1[C@H](N)CCCN1c1cnc(-c2ccc(F)c(F)c2)cc1Cn1cnc2c(N)ncnc21 [Example 317, (2S,3R)-3-amino-1-(4-((6-amino-9H-purin-9-yl)methyl)-6-(3,4-difluorophenyl)pyridin-3-yl)-N,N-dimethylpiperidine-2-carboxamide]
18 | – | – | > 1 µM | NC(=O)[C@@H]1[C@H](N)CCCN1c1cnc(-c2ccc(F)c(F)c2)cc1Cn1cnc2c(N)ncnc21 [Example 318, (2S,3R)-3-amino-1-(4-((6-amino-9H-purin-9-yl)methyl)-6-(3,4-difluorophenyl)pyridin-3-yl)piperidine-2-carboxamide]
19 | – | – | > 1 µM | Nc1ncnc2c1ncn2Cc1cc(-c2ccc(F)c(F)c2)ncc1N1CCC[C@@H](N)[C@H]1C(=O)O [Example 319]
20 | – | – | > 1 µM | NC(=O)C[C@@H]1[C@H](N)CCCN1c1cnc(-c2ccc(F)c(F)c2)cc1Cn1cnc2c(N)ncnc21 [Example 320, 2-((2R,3R)-3-amino-1-(4-((6-amino-9H-purin-9-yl)methyl)-6-(3,4-difluorophenyl)pyridin-3-yl)piperidin-2-yl)acetamide]
21 | – | – | > 1 µM | Nc1ncnc2c1ncn2Cc1cc(-c2ccc(F)c(F)c2)ncc1N1CCCC(N)C1=O (stereo not shown) [Example 324, 3-amino-1-(4-((6-amino-9H-purin-9-yl)methyl)-6-(3,4-difluorophenyl)pyridin-3-yl)piperidin-2-one]
